Measured values taken from patent US20120202885A1, “METHODS, ASSAYS AND COMPOSITIONS FOR TREATING RETINOL-RELATED DISEASES” (ReVision Therapeutics, Inc., priority 2004, published 2012).

How the values were obtained:
ABCA4 null mutant mice = experiment: HPR given i.p. to ABCA4 null mutant mice for 28 days: serum retinol, ocular retinoids and A2E; assay type: in vivo
Protocol: In order to explore the role of HPR in the visual cycle, the in vivo effects of HPR in mice have been examined. Thus, HPR was administered to ABCA4 null mutant mice (5-20 mg/kg, i.p. in DMSO) for periods of 28 days. Control mice received only the DMSO vehicle. At the end of the treatment period, the concentrations of retinol and HPR in serum and retinoid content in ocular tissues was measured. […] Thus, the calculated percent reduction for each of the measured retinoids, and A2E, was nearly identical (see FIG. 2).
Genetic crosses of RBP4^−/− mice with ABCA4^−/− mice was undertaken to examine the role of RBP in mediation of retinol levels in serum and ocular tissue.

wild type mice = experiment: HPR given to wild type mice for 5 days, then illumination: serum and ocular retinoids; assay type: in vivo; conditions: 20 mg/kg
Protocol: In order to ensure that the observed effects of HPR in ABCA4 null mice were not due to the genetic mutation, HPR (20 mg/kg, i.p. in DMSO) was administered to wild type mice for 5 days. Control mice received only the DMSO vehicle. On the final day of HPR treatment, the mice were exposed to constant illumination (1000 lux for 10 min) in order “stimulate” the visual cycle to generate visual chromophore. Immediately following the illumination period, the animals were sacrificed and the concentrations of retinoids in serum and ocular tissue were determined. […] As in the previous study, HPR caused a significant reduction in serum retinol (˜55%), ocular retinol (˜40%) and ocular retinal (˜30%). Although HPR did accumulate within ocular tissues during the treatment period (˜5 μM), no effect on LRAT or Rpe65/isomerase activities was observed.

[1] = target: Retinol Binding Protein (RBP) (Homo sapiens, UniProt P02753); experiment: Competition binding assay of HPR against RBP-retinol by fluorescence quenching; conditions: physiological temperature; HPR 2 μM (FIG. 9b)
Source text: Based upon these findings, we sought to further explore the mechanism(s) of retinol reduction during HPR treatment. A tenable hypothesis is that HPR may displace retinol by competing at the retinol binding site on RBP. […] Therefore, one can measure displacement of retinol from the RBP holoprotein by observing decreases in both protein (340 nm) and retinol (470 nm) fluorescence. We performed a competition binding assay using RBP-retinol/HPR concentrations which were similar to those determined from the 14 day trial at 20 mg/kg HPR described above. […] In the control assays, decreases in retinol fluorescence were associated with concomitant increases in protein fluorescence, see FIG. 9a. This effect was determined to be due to temperature effects as the dissociation constant of RBP-retinol increases (decreased affinity) with increased time at 37 C.

ABCA4−/− mice = experiment: Drug holiday after 28 days of HPR: A2E and precursors in eyecup extracts (HPLC); assay type: in vivo; conditions: for A2E and precursor (A2PE-H2 and A2PE) levels: 10 mg/kg 28 days
Protocol: HPR (10 mg/kg in DMSO) was administered to ABCA4−/− mice daily for a period of 28 days. Control ABCA4−/− mice received only DMSO for the same period. […] Importantly, the observed reductions in lipofuscin autofluorescence persist long after cessation of HPR therapy. HPR (10 mg/kg), or DMSO, administration was discontinued following 28 days of treatment and re-evaluated A2E and precursor levels after 2 weeks and after 4 weeks.
We examined eyecup extracts by HPLC and employed detection by absorbance and fluorimetry. Identity of the indicated peaks was confirmed by on-line spectral analysis and by co-elution with authentic standards. […] Further, the A2E and precursor (A2PE-H2 and A2PE) levels after a […] or 28-day drug holiday remained at or near the levels immediately following 28 days of treatment (i.e., ca. 50% reduction relative to control), although after the 28-day drug holiday, the amount of A2E and precursor (A2PE-H2 and A2PE) had increased by a few percentage points relative to the 12-day drug holiday levels. […] It is clear that peak fluorescence tracks with the abundance of A2E, A2PE and A2PE-H2.

[2] = cited from earlier work
[3] = 5-20 mg/kg, i.p. in DMSO, 28 days

In the case of `CC1=C(/C=C/C(C)=C/C=C/C(C)=C/C(=O)Nc2ccc(O)cc2)C(C)(C)CCC1` [HPR, N-(4-hydroxyphenyl)retinamide], the “ocular retinoids and A2E” value (ABCA4 null mutant mice; [3]) is reported as “commensurate reductions in ocular retinoids and A2E”, the “serum retinol as a function of increasing serum HPR” value (ABCA4 null mutant mice; [3]) is reported as “Profound reductions in serum retinol” and the “reduction in serum RBP-retinol” value (ABCA4 null mutant mice; administered dose 10 mg/kg) is reported as 50-60%. The “inhibition of LRAT activity” value (ABCA4 null mutant mice; mice receiving acute and chronic doses) was “has not been observed”, the “reduction in ocular retinal” value (wild type mice; i.p. in DMSO, wild type mice) was ~30% and the “reduction in ocular retinol” value (wild type mice; i.p. in DMSO, wild type mice) was ~40%. The “reduction in serum retinol” value (wild type mice; i.p. in DMSO, wild type mice) was ~55%, the “inhibition in synthesis of retinyl esters or visual chromophore” value (wild type mice; i.p., 1000 lux for 10 min) was “no significant inhibition” and the “effect on LRAT or Rpe65/isomerase activities” value (wild type mice; i.p., wild type mice) was “no effect”. For the same compound, the “displacement of retinol from the RBP-retinol holoprotein” value [1] was “efficiently displaces retinol”, the “A2E and precursor (A2PE-H2 and A2PE) levels” value (ABCA4−/− mice; then 12-day drug holiday) was “remain significantly reduced relative to control mice” and the “A2E and precursor (A2PE-H2 and A2PE) levels” value (ABCA4−/− mice; then 28-day drug holiday) was “remain significantly reduced relative to control mice”. For the same compound, the “detection of HPR or HPR metabolites in the eyes” value (ABCA4−/− mice; 28-day drug holiday) was “unable to detect”, the “reduction of A2E and precursors relative to control” value (ABCA4−/− mice; immediately following 28 days of treatment, level held after 12- or 28-day drug holiday) was “ca. 50%” and the “serum retinol and RBP” value ([2]; Formelli et al., Torrisi et al.) was “reductions in serum retinol and RBP”. For the same compound, the “reduction in circulating RBP and retinol” value ([2]; several investigators, Berni et al. 1993) was “established in vivo”.
